Entries after “also recorded” stand apart in the source; their conditions may differ.
Legend:
[1] = system: cIAP1, procaspase-8 and PARP in MDA-MB-231 xenograft tissues; experiment: In vivo pharmacodynamics in MDA-MB-231 xenograft tissues; set-up: species or system SCID mice
[2] = system: MDA-MB-231 xenograft tumors; experiment: In vivo antitumor efficacy, MDA-MB-231 xenograft model
MDA-MB-231 cancer cells = experiment: Trypan blue cell death assay, MDA-MB-231; assay type: cell-based, human; details: 1 μM for 24 hours
[3] = system: more than 100 human cancer cell lines; experiment: Screening against more than 100 human cancer cell lines; assay type: cell-based
XIAP BIR3 protein [4] = target: T1, XIAP BIR3 protein (Homo sapiens, UniProt P98170); experiment: Competitive fluorescence-polarization binding assay, XIAP BIR3; details: XIAP BIR3, cIAP1 BIR3 and cIAP2 BIR3
T1 sequence (P98170 241-356): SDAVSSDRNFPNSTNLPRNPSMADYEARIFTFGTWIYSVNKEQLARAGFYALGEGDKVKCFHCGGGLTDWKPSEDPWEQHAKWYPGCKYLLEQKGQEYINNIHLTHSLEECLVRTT

[5] = Pharmacokinetics in MDA-MB-231 tumor tissues of SCID mice; assay type: in vivo; details: for Cmax: SCID, mouse, in vivo
[6] = system: Primary human normal prostate epithelial cells; experiment: Trypan blue cell death assay, primary prostate epithelial cells; assay type: cell-based; details: concentrations as high as 10 μM, 48 hours
[7] = system: caspase-3 and PARP in MDA-MB-231 cancer cells; experiment: Western blot of caspase-3 activation and PARP cleavage, MDA-MB-231; assay type: cell-based, human; details: 1.5 μM, in as little as 12 hr
[8] = Pharmacokinetics in non-human primates; assay type: in vivo, cynomolgus monkeys; details: cynomolgus monkey, plasma, po, 5 mg/kg
XIAP BIR3 protein [9] = target: T1, XIAP BIR3 protein; experiment: Cell-free functional assay against XIAP BIR3; assay type: biochemical; details: 1 μM compound, 500 nM XIAP BIR3, MDA-MB-231 cell lysates
Metabolic stability = assay type: in vitro ADME; details: IND-enabling studies, data not shown
[10] = Toxicity evaluation in mice; assay type: in vivo; details: 200 mg/kg, daily for 5 days a week for 2–3 weeks via oral gavage
Pharmacokinetics in dogs = assay type: in vivo; details: beagle, dog, po, 10 mg/kg
[11] = system: normal-like human breast epithelial MCF-12F cells; experiment: Trypan blue cell death assay, MCF-12F; assay type: cell-based; details: concentrations as high as 10 μM, 48 hours
cIAP1 = cIAP1 (Homo sapiens, UniProt Q13490); experiment: cIAP1 degradation in MDA-MB-231 cells; assay type: cell-based
Chain of cIAP1 (Q13490 whole entry): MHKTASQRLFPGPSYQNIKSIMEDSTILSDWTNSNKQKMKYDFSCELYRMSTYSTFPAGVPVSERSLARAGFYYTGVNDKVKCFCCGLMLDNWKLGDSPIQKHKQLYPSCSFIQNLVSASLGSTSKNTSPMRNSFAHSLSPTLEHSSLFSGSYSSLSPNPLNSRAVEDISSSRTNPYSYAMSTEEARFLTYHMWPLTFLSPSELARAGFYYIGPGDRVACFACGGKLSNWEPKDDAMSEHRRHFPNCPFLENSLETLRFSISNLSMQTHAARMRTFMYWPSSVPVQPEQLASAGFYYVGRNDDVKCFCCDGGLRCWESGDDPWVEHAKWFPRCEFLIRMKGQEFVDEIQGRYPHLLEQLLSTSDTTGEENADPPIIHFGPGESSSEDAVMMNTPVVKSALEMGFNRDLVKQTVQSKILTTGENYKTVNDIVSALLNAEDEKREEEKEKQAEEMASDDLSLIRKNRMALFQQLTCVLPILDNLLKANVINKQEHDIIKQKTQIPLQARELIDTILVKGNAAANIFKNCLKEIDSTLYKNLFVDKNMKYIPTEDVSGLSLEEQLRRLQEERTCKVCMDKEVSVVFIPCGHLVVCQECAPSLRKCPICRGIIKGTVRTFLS

Tolerability in dogs = assay type: in vivo; details: IND-enabling studies, data not shown
[12] = Pharmacokinetics in plasma of SCID mice bearing MDA-MB-231 tumors; details: mouse, in vivo
[13] = 7.5 mg/kg intravenously, 24-h time-point

What does the source list for `CC(=O)O[C@@]12CO[C@@H]1C[C@H](O)[C@@]1(C)C(=O)[C@H](O)C3=C(C)[C@@H](OC(=O)[C@H](O)[C@@H](NC(=O)OC(C)(C)C)c4ccccc4)C[C@@](O)([C@@H](OC(=O)c4ccccc4)[C@H]21)C3(C)C.O.O.O` [TXT, reference compound]?
PARP cleavage in tumor tissues [1, 13]: minimal effect; cIAP1 degradation in tumor tissues [1, 13]: minimal effect; processing of procaspase-8 in tumor tissues [1, 13]: induces the processing of procaspase-8; antitumor activity ([2]; 7.5 mg/kg intravenously, once a week for 2 weeks): strong antitumor activity

Which results are given for `CN[C@@H](C)C(=O)N[C@H]1CN(C(=O)CC(C)C)CC[C@H]2CC[C@@H](C(=O)NC(c3ccccc3)c3ccccc3)N2C1=O` [compound 2, (5S,8S,10aR)-N-benzhydryl-5-((S)-2-(methylamino)propanamido)-3-(3-methylbutanoyl)-6-oxodeca-hydropyrrolo[1,2-a][1,5]diazocine-8-carboxamide]?
cells that underwent cell death (MDA-MB-231 cancer cells): More than 50%; share of cell lines in which cell growth is effectively inhibited [3]: approximately 15%; processing of procaspase-8 in tumor tissues ([1]; single oral dose 100 mg/kg, 2-hr and 6-hr time-points): effectively induces processing of procaspase-8; PARP cleavage in tumor tissues ([1]; single oral dose 100 mg/kg, at 2 hr, maximum at 6 hr, still evident after 16 hr): cleavage of the apoptosis marker, PARP; cIAP1 degradation in tumor tissues ([1]; single oral dose 100 mg/kg, at the 2-hr time-point, persists for 16 hr): effectively induced cIAP1 degradation; times higher affinities than the Smac AVPI peptide (XIAP BIR3 protein [4]): 50–100 times; tumor tissue penetration ([5]; SCID mice bearing MDA-MB-231 tumors): excellent tumor tissue penetration; Cmax ([5]; iv, 10 mg/kg): 6 µM; Cmax ([5]; po, 10 mg/kg): 0.5 µM; Cmax ([5]; po, 30 mg/kg): 3.9 µM; Cmax ([5]; po, 100 mg/kg): 18.2 µM; toxicity (cell death) against normal cells [6]: minimal toxicity; activation of caspase-3 and cleavage of PARP [7]: robust activation of caspase-3 and cleavage of PARP; Cmax [8]: ~4 µM; antagonism of XIAP BIR3 and restoration of caspase-9 activity (XIAP BIR3 protein [9]): completely antagonizes XIAP and restores the activity of caspase-9; metabolic stability (Metabolic stability): good metabolic stability; antitumor activity ([2]; 10 mg/kg oral gavage daily, 5 days a week for 2 weeks): no significant antitumor activity; toxicity to animals ([2]; oral dosing, MDA-MB-231 xenograft model in mice): minimal toxicity; also recorded: no signs of toxicity; tolerability [10]: well tolerated; AUC (Pharmacokinetics in dogs; in vivo): 198 µg·h/mL; Cmax (Pharmacokinetics in dogs; plasma): 17 µM; toxicity (cell death) against normal-like cells [11]: minimal toxicity; cIAP1 degradation (cIAP1; 100 nM for 15 min): complete degradation; induction of cIAP1 degradation (cIAP1; at concentrations as low as 10 nM): effectively induces cIAP1 degradation; tolerability in dogs (Tolerability in dogs): well tolerated; Cmax ([12]; iv, 10 mg/kg): 5 µM; Cmax ([12]; po, 10 mg/kg): 1.5 µM; Cmax ([12]; po, 30 mg/kg): 2 µM; Cmax ([12]; po, 100 mg/kg): 9.9 µM
